Earlier results on one compound are cited in patent publication US20210251923A1, “METHODS FOR IMPROVING NEUROLOGICAL DISEASES AND DISORDERS” (CuraSen Therapeutics, Inc., priority 2018, published 2021).

The subject of the series is Ts65Dn mice. As to conditions: increasing brain NE levels.

Each structure is given as a SMILES string.

Take `N[C@H](C(=O)O)[C@H](O)c1ccc(O)c(O)c1` [L-DOPS, L-threo-3,4-dihydroxyphenylserine]: the contextual learning result is listed as “restored contextual learning”.
